Data set [1] deals with CYP2A6.
Procedure: The reactions were stopped by collection of the incubation medium. Then, potential metabolite conjugates formed via Phase II activity were hydrolyzed by incubation of supernatants with β-glucuronidase/arylsulfatase (Roche, IN) for 2 hours at 37° C. Samples were diluted 1:1 in quenching solution and fluorescent metabolite formation was quantified by means of a fluorescence micro-plate reader (Molecular Devices, Sunnyvale, Calif.) as described elsewhere in detail. Production of 7-HC from CM is a reaction (CM 7-Hydroxylation) mediated by CYP2A6 in humans, production of 7-HFC from BFC or MFC (dealkylation) is mediated by several different CYP450s, and production of RR from ER (ER Odealkylation) is mediated by CYP1A2.
Cytochrome-P450 Induction. Stock solutions of prototypic CYP450 inducers (Sigma) were made in dimethylsulfoxide (DMSO), except for Phenobarbital, which was dissolved in water. Cultures were treated with inducers (Rifampin 25 μM, β-Naphthoflavone 30 μM or 50 μM, Phenobarbital 1 mM, Omeprazole 50 μM) dissolved in hepatocyte culture medium for 4 days. Control cultures were treated with vehicle (DMSO) alone for calculations of fold induction. To enable comparisons across inducers, DMSO levels were kept constant at 0.06% (v/v) for all conditions.
Data set [2] relates to CYP1A2. Conditions: human and rat, 4 days, 50 µM.
In data set [3] the test system is CYP2B.
Data set [4] concerns CYP3A. Conditions: hepatocytes.
For data set [5], the system named is CYP2B. Kind of data set: CYP2B protein induction in static and perfused bioreactor hepatocyte cultures.
Data set [6] has as its system CYP3A. Kind of data set: CYP3A protein induction in static and perfused bioreactor hepatocyte cultures.
In data set [7] the test system is CYP1A2. The data set is described as follows: Induction of CYP1A2 activity in microscale liver tissues (ethoxyresorufin dealkylation). The settings on record: incubation 1 or 3 days, varying dose.
In data set [8] the test system is micropatterned human co-cultures (primary human hepatocytes with 3T3-J2 fibroblasts). Conditions: MTT. How it is done:
Cultures were incubated with various concentrations of compounds dissolved in culture medium for 24 hours (acute toxicity) or extended time periods (chronic toxicity, 1-4 days). Cell viability was subsequently measured via the MTT (3-(4,5-dimethylthiazol-2-yl)-2,5-diphenyl tetrazolium bromide; Sigma) assay, which involves cleavage of the tetrazolium ring by mitochondrial dehydrogenase enzymes to form a purple precipitate. MTT was added to cells in DMEM without phenol red at a concentration of 0.5 mg/mL. After an incubation time of 1 hour, the purple precipitate was dissolved in a 1:1 solution of DMSO and Isopropanol. The absorbance of the solution was measured at 570 nm (SpectraMax spectrophotometer, Molecular Devices, Sunnyvale, Calif.).
Use of optimized micropatterned human co-cultures to evaluate metabolism and toxicity of xenobiotics. […] Acute toxicity tests involved incubating eight day old co-cultures for 24 hrs with various drugs, some with known clinical hepatotoxic potential. After the incubation time period, the cell culture medium was aspirated and a viability assay was conducted (MTT assay—commercially available). […]
To assess utility of the microscale human liver tissue for toxicity assays, the acute and chronic toxicity of model hepatotoxins were quantified. […]

Data set [9] deals with T1, CYP2A6 (Homo sapiens, UniProt P11509).
T1 sequence (P11509 1-494): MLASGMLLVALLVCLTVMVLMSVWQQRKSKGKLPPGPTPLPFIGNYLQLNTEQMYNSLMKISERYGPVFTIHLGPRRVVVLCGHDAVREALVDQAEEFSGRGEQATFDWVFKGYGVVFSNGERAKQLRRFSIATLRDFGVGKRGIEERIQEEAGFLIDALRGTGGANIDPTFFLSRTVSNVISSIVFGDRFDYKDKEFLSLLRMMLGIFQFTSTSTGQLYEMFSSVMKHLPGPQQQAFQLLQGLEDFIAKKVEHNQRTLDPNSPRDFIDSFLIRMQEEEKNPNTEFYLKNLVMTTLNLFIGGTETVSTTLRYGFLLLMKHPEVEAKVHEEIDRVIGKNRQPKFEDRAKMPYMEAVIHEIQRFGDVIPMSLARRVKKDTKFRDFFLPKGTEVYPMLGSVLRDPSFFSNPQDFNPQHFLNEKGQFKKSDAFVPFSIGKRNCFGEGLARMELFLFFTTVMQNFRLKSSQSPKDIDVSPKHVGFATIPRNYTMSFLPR
Procedure: Mitochondrial activity was measured using the MTT assay. All data was normalized to vehicle-only controls. […] ER, Ethoxy-resorufin. […] Error bars represent standard error of the mean (n=3).
The reactions were stopped by collection of the incubation medium. Then, potential metabolite conjugates formed via Phase II activity were hydrolyzed by incubation of supernatants with β-glucuronidase/arylsulfatase (Roche, IN) for 2 hours at 37° C. Samples were diluted 1:1 in quenching solution and fluorescent metabolite formation was quantified by means of a fluorescence micro-plate reader (Molecular Devices, Sunnyvale, Calif.) as described elsewhere in detail.

Setting [10] is: static cultures, 48 hour induction.
The mark [11] stands for this setting: treated 4 days with prototypic inducers.

Where two headings read alike, the source gives them in different places.

`COc1ccc2[nH]c([S+]([O-])Cc3ncc(C)c(OC)c3C)nc2c1` (stereo not shown) [Omeprazole]: the CYP2A6 induction result in the data set with CYP2A6 [1] is “weaker effects”. In addition, in the data set on CYP1A2 [2], the “Effectiveness of CYP1A2 induction in human over rat models” value was 8 fold.

“EGF: epidermal growth factor, added to perfusion media with PB or DEX”: in the data set with CYP2B [3], the “Effect on DEX-induced CYP2B” value is given as “significant shift in CYP2B spatial distribution was noted from inlet regions to the outlet”. The “Effect on DEX-induced CYP3A induction” value with CYP3A [4] was “remained uniform”.

Regarding `CCC1(c2ccccc2)C(=O)NC(=O)NC1=O` [Phenobarbital], the CYP2B expression entry in the data set on CYP2B [5] (perfused cultures, 36 hours) is reported as “Dramatic expression of both CYPs over controls”; in the data set with CYP2B [5] (setting [10]), “moderate”. For the same compound, the CYP2A6 induction result with CYP2A6 [1] (setting [11]) is listed as “induction was observed”. The CYP3A expression entry is on record as “Dramatic expression of both CYPs over controls” with CYP3A [6] (perfused cultures, 36 hours) and “low” with CYP3A [6] (setting [10]).

`C[C@@H]1C[C@H]2[C@@H]3CCC4=CC(=O)C=C[C@]4(C)[C@@]3(F)[C@@H](O)C[C@]2(C)[C@@]1(O)C(=O)CO` [DEX, dexamethasone]: the CYP2B induction entry in the data set with CYP2B [3] is on record as “high levels”.

Turning to `O=c1cc(-c2ccccc2)oc2ccc3ccccc3c12` [β-Naphthoflavone], in the data set with CYP2A6 [1] (setting [11]), the CYP2A6 induction result is listed as “weaker effects”. Further, the “Induction of CYP1A2 activity” value with CYP1A2 [7] was “dose and time-dependent manner”.

For the compound `[Cl][Cd][Cl]` [Cadmium, Cadmium chloride], the “Relative acute toxicity in vitro” value in data set [8] (24 hrs incubation) was “severely toxic”. Further, the “Shape of dose-dependent toxicity profile” value in data set [8] (acute exposure 24 hours) was “relatively linear toxic profile”.

Take `CO[C@H]1/C=C/O[C@@]2(C)Oc3c(C)c(O)c4c(O)c(c(/C=N/N5CCN(C)CC5)c(O)c4c3C2=O)NC(=O)/C(C)=C\C=C\[C@H](C)[C@H](O)[C@@H](C)[C@@H](O)[C@@H](C)[C@H](OC(C)=O)[C@@H]1C` [Rifampin]: in the data set with CYP2A6 [1], the CYP2A6 induction entry is reported as “induction was observed”.

Take `COc1c2occc2cc2ccc(=O)oc12` [methoxsalen, Methoxsalen]: on CYP2A6 [9], the “Inhibition of CYP2A6 activity” value is on record as “dose-dependent inhibition”.

(Values after patent publication US20160252494A1, “MICROSCALE MICROPATTERNED ENGINEERED IN VITRO TISSUE” (priority 2005, published 2016).)
